# EPA's ToxValDB 9.5
# System: Rattus norvegicus
# Settings: short-term, duration: 28 days, oral, gavage, Sprague-Dawley
smiles,measurement,setting,value
O=C(O)C(F)(F)C(F)(F)C(F)(F)C(F)(F)C(F)(F)C(F)(F)C(F)(F)F [Perfluorooctanoic acid],LOEL,"F, Clinical chemistry_Alanine aminotransferase",50 mg/kg-day
same,LOEL,"F, Clinical chemistry_Albumin",25 mg/kg-day
same,LOEL,"F, Clinical chemistry_Albumin/globulin ratio",12.5 mg/kg-day
same,LOEL,"F, Clinical chemistry_Alkaline phosphatase",6.25 mg/kg-day
same,NOEL,"F, Clinical chemistry_Aspartate aminotransferase",100 mg/kg-day
same,LOEL,"F, Clinical chemistry_Cholesterol",50 mg/kg-day
same,NOEL,"F, Clinical chemistry_Creatinine kinase",100 mg/kg-day
same,NOEL,"F, Clinical chemistry_Direct bilirubin",100 mg/kg-day
same,LOEL,"F, Clinical chemistry_Free thyroxine",100 mg/kg-day
same,LOEL,"F, Clinical chemistry_Globulin",12.5 mg/kg-day
same,NOEL,"F, Clinical chemistry_Indirect bilirubin",100 mg/kg-day
same,NOEL,"F, Clinical chemistry_Sorbitol dehydrogenase",100 mg/kg-day
same,NOEL,"F, Clinical chemistry_Testosterone",100 mg/kg-day
same,LOEL,"F, Clinical chemistry_Thyroid stimulating hormone",6.25 mg/kg-day
same,NOEL,"F, Clinical chemistry_Total bile acids",100 mg/kg-day
same,NOEL,"F, Clinical chemistry_Total bilirubin",100 mg/kg-day
same,NOEL,"F, Clinical chemistry_Total protein",100 mg/kg-day
same,LOEL,"F, Clinical chemistry_Total thyroxine",100 mg/kg-day
same,NOEL,"F, Clinical chemistry_Total triiodothyronine",100 mg/kg-day
same,LOEL,"F, Clinical chemistry_Triglycerides",50 mg/kg-day
same,LOEL,"F, Gene expression_Acox1",12.5 mg/kg-day
same,LOEL,"F, Gene expression_Cyp2b1",6.25 mg/kg-day
same,LOEL,"F, Gene expression_Cyp2b2",6.25 mg/kg-day
same,LOEL,"F, Gene expression_Cyp4a1",25 mg/kg-day
same,LOEL,"F, Hematology_Erythrocytes",12.5 mg/kg-day
same,LOEL,"F, Hematology_Hematocrit",12.5 mg/kg-day
same,LOEL,"F, Hematology_Hemoglobin",12.5 mg/kg-day
same,NOEL,"F, Hematology_Mean corpuscular hemoglobin concentration",100 mg/kg-day
same,NOEL,"F, Hematology_Mean corpuscular volume",100 mg/kg-day
same,NOEL,"F, Hematology_Platelets",100 mg/kg-day
same,NOEL,"F, Hematology_Reticulocytes",100 mg/kg-day
same,NOEL,"F, Nonneoplastic effects_Bone marrow - Hypocellularity",100 mg/kg-day
same,NOEL,"F, Nonneoplastic effects_Forestomach - Epithelium, hyperplasia",100 mg/kg-day
same,NOEL,"F, Nonneoplastic effects_Forestomach - Inflammation, chronic active",100 mg/kg-day
same,NOEL,"F, Nonneoplastic effects_Kidney - Nephropathy, chronic progressive",100 mg/kg-day
same,NOEL,"F, Nonneoplastic effects_Liver - Hepatocyte, Necrosis",100 mg/kg-day
same,LOEL,"F, Nonneoplastic effects_Liver - Hepatocyte, cytoplasmic alteration",25 mg/kg-day
same,LOEL,"F, Nonneoplastic effects_Liver - Hepatocyte, hypertrophy",100 mg/kg-day
same,NOEL,"F, Nonneoplastic effects_Liver - Hepatocyte, vacuolization cytoplasmic",100 mg/kg-day
same,NOEL,"F, Nonneoplastic effects_Lymph nodes - Mandibular, atrophy",100 mg/kg-day
same,NOEL,"F, Nonneoplastic effects_Lymph nodes - Mesenteric, atrophy",100 mg/kg-day
same,LOEL,"F, Nonneoplastic effects_Nose - Olfactory epithelium, degeneration",50 mg/kg-day
same,LOEL,"F, Nonneoplastic effects_Nose - Olfactory epithelium, hyperplasia",50 mg/kg-day
same,LOEL,"F, Nonneoplastic effects_Nose - Olfactory epithelium, inflammation, suppurative",100 mg/kg-day
same,LOEL,"F, Nonneoplastic effects_Nose - Respiratory epithelium, hyperplasia",12.5 mg/kg-day
same,LOEL,"F, Nonneoplastic effects_Nose - Respiratory epithelium, inflammation, chronic active",12.5 mg/kg-day
same,NOEL,"F, Nonneoplastic effects_Spleen - Atrophy",100 mg/kg-day
same,NOEL,"F, Nonneoplastic effects_Spleen - Extramedullary hematopoiesis, increased",100 mg/kg-day
same,NOEL,"F, Nonneoplastic effects_Thymus - Atrophy",100 mg/kg-day
same,NOEL,"F, Nonneoplastic effects_Thymus - Lymphocyte, apoptosis",100 mg/kg-day
same,LOEL,"F, Nonneoplastic effects_Thyroid gland - Follicular cell hypertrophy",100 mg/kg-day
same,LOEL,"F, Organ weights_Liver - Absolute",25 mg/kg-day
same,LOEL,"F, Organ weights_Liver - Relative",25 mg/kg-day
same,NOEL,"F, Organ weights_R. adrenal gland - Absolute",100 mg/kg-day
same,NOEL,"F, Organ weights_R. adrenal gland - Relative",100 mg/kg-day
same,LOEL,"F, Organ weights_R. kidney - Absolute",100 mg/kg-day
same,LOEL,"F, Organ weights_R. kidney - Relative",50 mg/kg-day
same,NOEL,"F, Organ weights_Spleen - Absolute",100 mg/kg-day
same,NOEL,"F, Organ weights_Spleen - Relative",100 mg/kg-day
same,NOEL,"F, Organ weights_Thymus - Absolute",100 mg/kg-day
same,NOEL,"F, Organ weights_Thymus - Relative",100 mg/kg-day
same,NOEL,"F, Organ weights_Thyroid gland - Absolute",100 mg/kg-day
same,NOEL,"F, Organ weights_Thyroid gland - Relative",100 mg/kg-day
same,LOEL,"F, Reproductive toxicity_Altered estrous cyclicity",100 mg/kg-day
same,NOEL,"F, Survival rates",100 mg/kg-day
same,NOEL,"F, body weight",100 mg/kg-day
same,LOEL,"M, Clinical chemistry_Alanine aminotransferase",0.625 mg/kg-day
same,NOEL,"M, Clinical chemistry_Albumin",10 mg/kg-day
same,LOEL,"M, Clinical chemistry_Albumin/globulin ratio",0.625 mg/kg-day
